Test in all cases: NCI anticancer screen, dose series, 48 h
The subject of test [1] is A498.
Test [2] has as its system NCI-H226.
Test [3] deals with RXF 393.
The test system of test [4] is SNB-75.
Test [5] has as its system SW-620.
Test [6] relates to MDA-MB-231.
Test [7] concerns ACHN.
Test [8] relates to 786-0.
Test [9] relates to EKVX.
For test [10], the system named is HOP-92.
Test [11] relates to T47D.
Test [12] relates to M14.
Test [13] concerns HL-60.
The test system of test [14] is SF-268.
For test [15], the system named is Hs-578T.
In test [16] the test system is A549.
In test [17] the test system is DU-145.
Test [18] deals with COLO 205.
The subject of test [19] is OVCAR-4.

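Dose response: 5 concentrations. Exposure: 48 h. Format: 96-well plates. Endpoint: linear interpolation; highest concentration if not reached. At the GI50, growth is halved.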 The source made the active and inactive calls. Rule as the data show it: active = GI50 up to about 1.1 µM and inactive = higher.

As to `O=C(O)CSCCc1ccccc1`, the GI50 in test [1], in test [2], in test [3], in [4], in [5] and in test [6] was > 100 µM (inactive) in each case. The GI50 in test [7], in [8], in [9], in test [10], in [11] and in test [12] was > 100 µM (inactive) in each case. Moreover, the GI50 was 0.156 µM (active) in test [13]; > 100 µM (inactive) in [14]; > 100 µM (inactive) in test [15]; > 100 µM (inactive) in [16]; > 100 µM (inactive) in [17]; > 100 µM (inactive) in test [18]. The GI50 in test [19] is > 100 µM (inactive).

With `O=C1C=C(OCCCl)C(=O)c2c(O)ccc(O)c21`, the GI50 was 1.28 µM (inactive) in test [1]; 2.26 µM (inactive) in test [2]; 1.92 µM (inactive) in [3]; 0.405 µM (active) in [4]; 1.78 µM (inactive) in [6]; 1.54 µM (inactive) in [7]. Moreover, the GI50 in test [8] was 1.62 µM (inactive); in test [9], 1.91 µM (inactive); in test [10], 2.15 µM (inactive); in [11] it was 2.24 µM (inactive); in test [12], 0.177 µM (active); in test [13] it was 1.11 µM (active). The GI50 in test [14] was 0.931 µM (active); in [15], 3.98 µM (inactive); in [16] it was 0.262 µM (active); in test [17], 0.29 µM (active); in test [18], 0.181 µM (active); in test [19], 1.64 µM (inactive).

For `Cc1ccc(-c2[nH]c(=O)n(C3OC(CO)C(O)C(O)C3O)c(=O)c2C#N)cc1` (stereo not drawn), the GI50 in test [1], in [2], in test [3], in test [4], in test [5] and in [6] was > 100 µM (inactive) each time. The GI50 in test [7], in [8], in [9], in test [10], in test [11] and in test [12] was > 100 µM (inactive) in each case. Besides, the GI50 in [13], in test [14], in test [15], in test [16], in test [17] and in test [18] was > 100 µM (inactive) throughout. In addition, in test [19], the GI50 was > 100 µM (inactive).

In the case of `Oc1cc(Br)cc2cccnc12`, the GI50 was 8.36 µM (inactive) in test [1]; 8.41 µM (inactive) in test [2]; 2.05 µM (inactive) in test [3]; 15.2 µM (inactive) in test [4]; 2.56 µM (inactive) in test [5]; 2.52 µM (inactive) in test [6]. Further, the GI50 is 2.63 µM (inactive) in test [7]; 9.51 µM (inactive) in test [8]; 2.09 µM (inactive) in test [9]; 5.15 µM (inactive) in test [10]; 3.59 µM (inactive) in [11]; 1.37 µM (inactive) in test [12]. For the same compound, the GI50 was 0.237 µM (active) in [13]; 0.698 µM (active) in test [14]; 1.7 µM (inactive) in [15]; 1.52 µM (inactive) in [16]; 9.91 µM (inactive) in test [17]; 11.6 µM (inactive) in [18]. Moreover, the GI50 in test [19] was 1.25 µM (inactive).

As to `OC(c1ccccc1)C(F)(F)c1nc2ccccc2o1` (stereo not drawn), the GI50 was 14.7 µM (inactive) in [1]; > 100 µM (inactive) in test [2]; > 100 µM (inactive) in [3]; > 100 µM (inactive) in [4]; > 100 µM (inactive) in [5]; > 100 µM (inactive) in test [6]. Besides, the GI50 in test [7] is > 100 µM (inactive); in test [8], > 100 µM (inactive); in [9] it was > 100 µM (inactive); in [10], > 100 µM (inactive); in test [11] it was 55.3 µM (inactive); in test [12] it was > 100 µM (inactive). The GI50 in test [13] is > 100 µM (inactive); in test [14], > 100 µM (inactive); in test [15], > 100 µM (inactive); in test [17], 67.5 µM (inactive); in test [18] it was > 100 µM (inactive); in test [19], > 100 µM (inactive).

Consider `CCOc1ccc(C2Oc3c(cccc3OC)C=C2[N+](=O)[O-])cc1OCC` (stereo not drawn), for which the GI50 is 9.57 µM (inactive) in [1]; 21.9 µM (inactive) in test [2]; 3 µM (inactive) in [3]; 13.8 µM (inactive) in test [4]; 2.06 µM (inactive) in test [5]; 2.73 µM (inactive) in test [6]. Besides, the GI50 in [7] was 3.71 µM (inactive); in test [8] it was 3.04 µM (inactive); in test [9], 16.7 µM (inactive); in [10] it was 12.6 µM (inactive); in test [11], 15.7 µM (inactive); in test [12], 2.38 µM (inactive). In addition, the GI50 in test [13] was 2.14 µM (inactive); in test [14], 11.6 µM (inactive); in test [15], 5.51 µM (inactive); in [16], 17.3 µM (inactive); in test [17], 14.6 µM (inactive); in [18], 3.68 µM (inactive). In addition, the GI50 in [19] is 10.9 µM (inactive).

As for `CC(C)(C)OC(=O)N/C=C1\C(=O)Oc2ccccc2C1=O`, the GI50 in [1] was 8.36 µM (inactive); in [2], 20.7 µM (inactive); in [3], 23.2 µM (inactive); in test [4], 23.5 µM (inactive); in [5] it was 38.5 µM (inactive); in [6], 21.8 µM (inactive). In addition, the GI50 was 20.2 µM (inactive) in [7]; 34.6 µM (inactive) in [8]; 47.6 µM (inactive) in test [9]; 45.3 µM (inactive) in test [10]; 24 µM (inactive) in test [11]; 35.6 µM (inactive) in [12]. Besides, the GI50 in test [13] is > 100 µM (inactive); in test [14] it was 25.2 µM (inactive); in [15], 13.9 µM (inactive); in test [16] it was 39.6 µM (inactive); in test [17] it was 8.67 µM (inactive); in test [18] it was 51.1 µM (inactive). For the same compound, the GI50 in test [19] is 33 µM (inactive).

Regarding `C#CCC(O)c1ccc(OC)c(OCc2ccccc2)c1` (stereo not drawn), the GI50 in [1] was > 100 µM (inactive); in test [2], 32.8 µM (inactive); in test [3], > 100 µM (inactive); in [4], 27 µM (inactive); in test [6], 59.2 µM (inactive); in test [7], > 100 µM (inactive). The GI50 in test [8] is > 100 µM (inactive); in [9], 56.2 µM (inactive); in test [10], > 100 µM (inactive); in test [11], > 100 µM (inactive); in test [12] it was > 100 µM (inactive); in [13] it was > 100 µM (inactive). In addition, the GI50 in test [14], in [15], in test [16], in [17], in [18] and in [19] was > 100 µM (inactive) each time.

`C(=N\c1nc2cc3sc(/N=C/c4cccs4)nc3cc2s1)/c1cccs1`: the GI50 in test [1] was > 100 µM (inactive); in test [2], 28.4 µM (inactive); in test [3] it was > 100 µM (inactive); in test [4], > 100 µM (inactive); in [6] it was > 100 µM (inactive); in test [7], > 100 µM (inactive). In addition, the GI50 is > 100 µM (inactive) in test [8]; 34.4 µM (inactive) in test [9]; > 100 µM (inactive) in test [10]; > 100 µM (inactive) in test [11]; > 100 µM (inactive) in [12]; 79.6 µM (inactive) in test [13]. Also, the GI50 is > 100 µM (inactive) in test [14]; > 100 µM (inactive) in test [15]; 11.5 µM (inactive) in test [16]; > 100 µM (inactive) in [17]; 3.4 µM (inactive) in test [18]; > 100 µM (inactive) in test [19].

Regarding `CC(C)SC1SCC2C(=O)N(C)C3(CC3C)C(=O)OCC(NC(=O)c3nc4ccccc4cc3O)C(=O)NC(C)C(=O)N(C)C1C(=O)N(C)C1(CC1C)C(=O)OCC(NC(=O)c1nc3ccccc3cc1O)C(=O)NC(C)C(=O)N2C` (stereo not drawn), the GI50 in test [1], in test [2], in [3], in test [4], in test [5] and in test [6] was < 0.0001 µM (active) in each case. Moreover, the GI50 in test [7] is < 0.0001 µM (active); in test [8], < 0.0001 µM (active); in test [9], 0.00298 µM (active); in test [10], < 0.0001 µM (active); in [11], < 0.0001 µM (active); in [12], < 0.0001 µM (active). In addition, the GI50 in [13], in test [14], in test [15], in test [16], in test [17] and in [18] was < 0.0001 µM (active) throughout. Also, in [19], the GI50 is < 0.0001 µM (active).

Take `Oc1ccc(-c2nc3cc(C(F)(F)F)ccc3n2CC2CCCN3CCCCC23)cc1` (stereo not drawn): the GI50 in [1] is 14.9 µM (inactive); in test [2] it was 16.3 µM (inactive); in test [3] it was 15.5 µM (inactive); in test [4] it was 14.9 µM (inactive); in test [5], 15.1 µM (inactive); in test [6], 14.5 µM (inactive). In addition, the GI50 is 15 µM (inactive) in [7]; 17 µM (inactive) in [8]; 14.8 µM (inactive) in [9]; 14.9 µM (inactive) in test [10]; 18.2 µM (inactive) in test [11]; 16.3 µM (inactive) in test [12]. Moreover, the GI50 in [13] was 3.01 µM (inactive); in test [14], 14.8 µM (inactive); in [15], 15.8 µM (inactive); in [17] it was 17.1 µM (inactive); in [19], 15.1 µM (inactive).

(Values after ChEMBL document CHEMBL1201862, “PubChem BioAssay data set” (2004).)
